The target in one series is T1, Human TRPA1 (Homo sapiens, UniProt O75762).
T1 construct: expressed in transfected cells; host or cells: CHO cells (grown with 400 μg/ml G-418)
Description: 45Calcium uptake assay: inhibition of AITC induced cellular uptake of radioactive calcium. It is filed as cell-based. Conditions: human TRPA1 expressing CHO cells, AITC 30 μM; for inhibition at 1 µM: read-out: Percentage inhibition at 1.0 μM; for inhibition at 10 µM: read-out: Percentage inhibition at 10.0 μM. The method, then:
The illustrative examples of the present invention were screened for TRPA1 activity according to a modified procedure described in (a) Tóth, A. et al. Life Sciences, 2003, 73, 487-498. ([…]. et al, Proc. Natl. Acad. Sci. U.S.A., 2007, 104, 13525-13530. The screening of the compounds can be carried out by other methods and procedures known to persons skilled in the art. Screening for TRPA1 Antagonist Using the ^45Calcium Uptake Assay: The inhibition of TRPA1 receptor activation was measured as inhibition of allyl isothiocyanate (AITC) induced cellular uptake of radioactive calcium. Test compounds were dissolved in 100% DMSO to prepare 10 mM stock and then diluted using plain medium with 0.1% BSA and 1.8 mM CaCl2 to get the desired concentration. The final concentration of DMSO in the reaction was 0.5% (v/v). Human TRPA1 expressing CHO cells were grown in F-12 DMEM medium with 10% FBS, 1% penicillin-streptomycin solution, and 400 μg/ml of G-418. Cells were seeded 24 h prior to the assay in 96 well plates so as to get 50,000 cells per well on the day of experiment. Cells were treated with the test compounds for 10 minutes followed by the addition of AITC at a final concentration of 30 μM and 5 μCi/ml^45Ca^+2 for 3 minutes. Cells were washed and lysed using a buffer containing 1% Triton X-100, 0.1% deoxycholate and 0.1% SDS. Radioactivity in the lysate was measured in a Packard TopCount after addition of liquid scintillant. (Toth et al, Life Sciences (2003) 73, 487-498; McNamara C R et al, Proceedings of the National Academy of Sciences, (2007) 104, 13525-13530). Concentration response curves were plotted as a % of maximal response obtained in the absence of test antagonist. IC50 values can be calculated from concentration response curve by nonlinear regression analysis using GraphPad PRISM software.

Series [1] is described as follows: Determination of solubility by shake flask method (water). The class given is physicochemical. Conditions: for aqueous solubility over the parent thiazole acetamide: compared with the corresponding parent compound of formula (1); for solubility at 15 min: thermodynamic from solid, water, 37° C., shake flask. The method, then: About 1 mg of test substance was taken in test tube and water was added in the increment of 1 ml with shaking after addition of media (water). Solubility was observed visually also. After completion of addition of 10 ml volume of media (water), test tube containing sample solution were put on a mechanical shaker set at 37° C. and 200 rpm for shaking up to 15 minute. After shaking, content of flask was filtered through 0.45μ filter. This filtered solution is analyzed using HPLC method for quantification. A sample solution of 1 mg in 10 ml of DMSO is used as reference standard for quantifying dissolved test substance in media. Solubility is expressed as mcg/ml.
Aqueous solubility of ‘P’ substituted thiazole compounds and the parent thiazole compounds were determined using the above described procedure and the results are given Table 3.

The nature of series [2]: Rat pharmacokinetic (PK) study, oral suspension. To be noted: for pharmacokinetic properties (Cmax and AUC) compared to the parent thiazole acetamide: compared with the corresponding parent compound of formula (1); for Cmax / AUC(0-t): rat, plasma, parent thiazole compound of the example, male Sprague Dawley rats, oral suspension; for AUC(0-t): read-out: AUC0-24. The class given is in vivo, male rats (Sprague Dawley). The method, then:
PK values were obtained in male rats (strain: Sprague Dawley) orally dosed with the compounds of the present invention as suspension. Accurately weighed quantity of compound of present invention (corrected for purity and salt factor) was transferred into a clean and dry mortar. To this mortar was added 2.5 μL/mL Tween 80 and triturated until the compound gets properly wet. To this, 0.5% (w/v) methyl cellulose suspension was added in geometric proportions and triturated thoroughly to form a uniform suspension.
Animals were provided with food and water ad libitum through out the study period. Animals were dosed orally with the compounds using a gavage needle at 10 mL/kg body weight. Blood samples (250 μl approx.) were collected from male Sprague Dawley retro orbital sinus using rat capillary tubes into 0.6 mL eppendorf tubes with tripotassium ethylenediaminetetraacetic acid (K3 EDTA) (25 μL) as anticoagulant. Samples were collected at 0.5, 1.0, 2.0, 4.0, 6.0, 8.0, 12.0 and 24.0 hr post dosing for compounds. Then samples were centrifuged immediately at 1000 g for 10 min. at 4° C. Plasma samples were separated and stored at −70° C. till analysis. Samples were processed and analyzed using LCMS/MS. Pharmacokinetic parameters were calculated using Winonlin software. Table 4 provides the pK values (Cmax, AUC) obtained in these studies.

Where [3] appears, read: ‘P’ substituted thiazole compound.
Setting [4] is: parent thiazole compound of the example.

The results in this text go back to US9073955B2, “2-amino-4-arylthiazole compounds as TRPA1 antagonists” (Glenmark Pharmaceuticals, S.A., priority 2010, dated 2015).

SMILES strings stand for the structures. Where two headings read alike, the source gives them in different places.

T1 sequence (O75762 whole entry): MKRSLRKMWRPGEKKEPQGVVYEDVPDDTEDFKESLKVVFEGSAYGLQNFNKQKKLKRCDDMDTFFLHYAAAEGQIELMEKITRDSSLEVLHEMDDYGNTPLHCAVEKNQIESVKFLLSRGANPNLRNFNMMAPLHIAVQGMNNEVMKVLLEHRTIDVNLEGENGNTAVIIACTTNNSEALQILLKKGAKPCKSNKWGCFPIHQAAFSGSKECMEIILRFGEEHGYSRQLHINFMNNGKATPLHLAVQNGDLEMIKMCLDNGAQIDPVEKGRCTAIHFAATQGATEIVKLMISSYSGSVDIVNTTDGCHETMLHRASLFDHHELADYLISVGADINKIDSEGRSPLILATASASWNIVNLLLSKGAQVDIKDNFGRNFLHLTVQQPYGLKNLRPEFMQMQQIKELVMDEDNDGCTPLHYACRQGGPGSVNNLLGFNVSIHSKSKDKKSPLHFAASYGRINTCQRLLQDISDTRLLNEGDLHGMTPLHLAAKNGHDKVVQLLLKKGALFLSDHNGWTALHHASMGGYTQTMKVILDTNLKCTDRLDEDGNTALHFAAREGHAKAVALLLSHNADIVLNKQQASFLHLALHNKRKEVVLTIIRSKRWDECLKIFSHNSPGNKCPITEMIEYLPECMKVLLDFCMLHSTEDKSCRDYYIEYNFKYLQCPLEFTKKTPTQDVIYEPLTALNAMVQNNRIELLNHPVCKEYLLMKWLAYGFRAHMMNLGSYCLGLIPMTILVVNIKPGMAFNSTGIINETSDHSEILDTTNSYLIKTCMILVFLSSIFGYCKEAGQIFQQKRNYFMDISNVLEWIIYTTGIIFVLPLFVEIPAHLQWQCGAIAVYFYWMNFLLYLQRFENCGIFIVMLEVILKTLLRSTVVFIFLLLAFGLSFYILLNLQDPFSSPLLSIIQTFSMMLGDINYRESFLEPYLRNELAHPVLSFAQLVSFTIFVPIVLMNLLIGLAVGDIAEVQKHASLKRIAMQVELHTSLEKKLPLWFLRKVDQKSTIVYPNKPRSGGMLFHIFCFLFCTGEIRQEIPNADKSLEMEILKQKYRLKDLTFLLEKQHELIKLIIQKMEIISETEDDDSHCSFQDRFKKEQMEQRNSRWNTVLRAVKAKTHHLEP

For `Cl.Cn1c(=O)c2c(CC(=O)/N=c3\scc(-c4ccc(F)c(C(F)(F)F)c4F)n3COC(=O)CN)csc2n(C)c1=O` [Example 3, [4-[2,4-Difluoro-3-(trifluoromethyl)phenyl]-2-{[(1,3-dimethyl-2,4-dioxo-1,2,3,4-tetrahydrothieno[2,3-d]pyrimidin-5-yl)acetyl]imino}-1,3-thiazol-3 (2H)-yl]methyl glycinate hydrochloride], on Human TRPA1 (1.0 μM), the inhibition – broadly, the relative decrease from the control value, in per cent – at 1 µM turned out to be 100%. In addition, the inhibition at 10 µM on Human TRPA1 (10.0 μM) turned out to be 99.9%. Also, the IC50 (in general, the concentration that gives 50% inhibition) on Human TRPA1 is < 100 nM. Further, the “aqueous solubility over the parent thiazole acetamide” value in series [1] is recorded as “better aqueous solubility”.

On to `Cl.Cn1c(=O)c2c(CC(=O)/N=c3\scc(-c4ccc(F)c(C(F)(F)F)c4F)n3COC(=O)C3CCNCC3)csc2n(C)c1=O` [Example 10, [4-[2,4-Difluoro-3-(trifluoromethyl)phenyl]-2-{[(1,3-dimethyl-2,4-dioxo-1,2,3,4-tetrahydrothieno[2,3-d]pyrimidin-5-yl)acetyl]imino}-1,3-thiazol-3(2H)-yl]methyl piperidine-4-carboxylate hydrochloride], for which the inhibition at 1 µM at Human TRPA1 (1.0 μM) came to 90.5%. Moreover, the inhibition at 10 µM on Human TRPA1 (10.0 μM) was 89.3%. Also, the IC50 on Human TRPA1 is 100 to 500 nM. Besides, in series [1], the “aqueous solubility over the parent thiazole acetamide” value is listed as “better aqueous solubility”. Also, the solubility (usually how much of the substance goes into solution per volume) at 15 min in series [1] (setting [3]) was > 29 µg/mL.

Turning to `Cn1c(=O)c2c(CC(=O)/N=c3\scc(-c4ccc(F)c(C(F)(F)F)c4F)n3COP(=O)(O)O)csc2n(C)c1=O` [Example 13, [4-[2,4-Difluoro-3-(trifluoromethyl)phenyl]-2-{[(1,3-dimethyl-2,4-dioxo-1,2,3,4-tetrahydrothieno[2,3-d]pyrimidin-5-yl)acetyl]imino}-1,3-thiazol-3 (2H)-yl]methyl dihydrogen phosphate], the inhibition at 1 µM on Human TRPA1 (CHO, 1.0 μM) was 75.3%. Moreover, the inhibition at 10 µM on Human TRPA1 (CHO, 10.0 μM) stood at 99.3%. Further, at Human TRPA1, the IC50 is > 500 nM. The solubility at 15 min in series [1] (setting [3]) is > 2.5 µg/mL.

Take `Cn1c(=O)c2c(CC(=O)/N=c3\scc(-c4ccc(F)c(C(F)(F)F)c4F)n3COP(=O)([O-])[O-])csc2n(C)c1=O.[Na+].[Na+]` [Example 14, Disodium[4-[2,4-difluoro-3-(trifluoromethyl)phenyl]-2-{[(1,3-dimethyl-2,4-dioxo-1,2,3,4-tetrahydrothieno[2,3-d]pyrimidin-5-yl)acetyl]imino}-1,3-thiazol-3(2H)-yl]methyl phosphate]: on Human TRPA1, the IC50 lay in the range of 100 to 500 nM. Further, the solubility at 15 min in series [1] (setting [3]) was > 1200 µg/mL.

For the molecule `Cc1oc2c(c1CC(=O)/N=c1\scc(-c3ccc(OC(F)(F)F)c(Cl)c3)n1COC(=O)[C@@H](N)C(C)C)c(=O)n(C)c(=O)n2C.Cl` [Example 21, [4-[3-Chloro-4-(trifluoromethoxy)phenyl]-2-{[(1,3,6-trimethyl-2,4-dioxo-1,2,3,4-tetrahydrofuro[2,3-d]pyrimidin-5-yl)acetyl]imino}-1,3-thiazol-3(2H)-yl]methyl L-valinate hydrochloride], the “pharmacokinetic properties (Cmax and AUC) compared to the parent thiazole acetamide” value in series [2] is reported as “better pharmacokinetic properties”. Further, the inhibition at 1 µM on Human TRPA1 (CHO, 1.0 μM) was found to be 93.8%. The inhibition at 10 µM on Human TRPA1 (CHO, 10.0 μM) came out at 99.9%. For the same molecule, the IC50 at Human TRPA1 was < 100 nM.

`Cc1oc2c(c1CC(=O)/N=c1\scc(-c3ccc(OC(F)(F)F)c(Cl)c3)n1COC(=O)C1CCNCC1)c(=O)n(C)c(=O)n2C.Cl` [Example 23, [4-[3-Chloro-4-(trifluoromethoxy)phenyl]-2-{[(1,3,6-trimethyl-2,4-dioxo-1,2,3,4-tetrahydrofuro[2,3-d]pyrimidin-5-yl)acetyl]imino}-1,3-thiazol-3 (2H)-yl]methyl piperidine-4-carboxylate hydrochloride]: the “pharmacokinetic properties (Cmax and AUC) compared to the parent thiazole acetamide” value in series [2] is listed as “better pharmacokinetic properties”. For the same molecule, the inhibition at 1 µM on Human TRPA1 (1.0 μM) was 91.2%. The inhibition at 10 µM at Human TRPA1 (10.0 μM) came out at 97.8%. Also, the IC50 on Human TRPA1 was 100 to 500 nM.

With `Cc1oc2c(c1CC(=O)/N=c1\scc(-c3ccc(OC(F)(F)F)c(Cl)c3)n1COP(=O)([O-])[O-])c(=O)n(C)c(=O)n2C.[Na+].[Na+]` [Example 26, Disodium[4-[3-chloro-4-(trifluoromethoxy)phenyl]-2-{[(1,3,6-trimethyl-2,4-dioxo-1,2,3,4-tetrahydrofuro[2,3-d]pyrimidin-5-yl)acetyl]imino}-1,3-thiazol-3 (2H)-yl]methyl phosphate], at Human TRPA1 (1.0 μM), the “Percentage inhibition at 1.0 μM” value came out at 12.64%. Also, the “Percentage inhibition at 10.0 μM” value at Human TRPA1 (10.0 μM) is given as 96.25%. The solubility at 15 min in series [1] (setting [3]) was > 75 µg/mL.

On to `Cn1nc2c(c1CC(=O)N=c1scc(-c3ccc(F)c(C(F)(F)F)c3F)n1COP(=O)([O-])[O-])c(=O)n(C)c(=O)n2C.[Na+].[Na+]` [Example 29, Disodium-(4-(2,4-difluoro-3-(trifluoromethyl)phenyl)-2-((2-(2,5,7-trimethyl-4,6-dioxo-4,5,6,7-tetrahydro-2H-pyrazolo[3,4-d]pyrimidin-3-yl)acetyl)imino)thiazol-3 (2H)-yl)methyl phosphate], for which the IC50 at Human TRPA1 was > 500 nM. Further, the solubility at 15 min in series [1] (setting [3]) was > 110 µg/mL.

For `Cn1c(=O)c2c(CC(=O)Nc3nc(-c4ccc(F)c(C(F)(F)F)c4F)cs3)csc2n(C)c1=O` [parent of Example 10, N-{4-[2,4-difluoro-3-(trifluoromethyl)phenyl]-1,3-thiazol-2-yl}-2-(1,3-dimethyl-2,4-dioxo-1,2,3,4-tetrahydrothieno[2,3-d]pyrimidin-5-yl)acetamide, reference compound], in series [2], the Cmax (commonly the highest concentration seen after dosing) was < 250 ng/mL and the AUC(0-t) was < 4000 ng·h/mL. Further, the solubility at 15 min in series [1] (setting [4]) is < 0.2 µg/mL.

For `Cc1oc2c(c1CC(=O)Nc1nc(-c3ccc(OC(F)(F)F)c(Cl)c3)cs1)c(=O)n(C)c(=O)n2C` [parent of Example 25, N-{4-[3-chloro-4-(trifluoromethoxy)phenyl]-1,3-thiazol-2-yl}-2-(1,3,6-trimethyl-2,4-dioxo-1,2,3,4-tetrahydrofuro[2,3-d]pyrimidin-5-yl)acetamide, reference compound], in series [2], the Cmax was < 250 ng/mL and the AUC(0-t) was < 3000 ng·h/mL. The solubility at 15 min in series [1] (setting [4]) was < 1.1 µg/mL.

For the molecule `Cn1nc2c(c1CC(=O)Nc1nc(-c3ccc(F)c(C(F)(F)F)c3F)cs1)c(=O)n(C)c(=O)n2C` [parent of Example 28, N-(4-(2,4-difluoro-3-(trifluoromethyl)phenyl)thiazol-2-yl)-2-(2,5,7-trimethyl-4,6-dioxo-4,5,6,7-tetrahydro-2H-pyrazolo[3,4-d]pyrimidin-3-yl)acetamide, reference compound], in series [2], the Cmax was < 500 ng/mL and the AUC(0-t) was < 7000 ng·h/mL. In series [1] (setting [4]), the solubility at 15 min is < 0.1 µg/mL.
